Measurements from US8513232B2, “Substituted spirocyclic piperidine derivatives as histamine-3 (H3) receptor ligands” (Cephalon, Inc., priority 2008, dated 2013).
Counter-ions that a name gives are not always drawn. Like-named read-outs stand apart in the source and are kept apart here.

Key:
human H3 receptor = target: T1, human H3 receptor (Homo sapiens, UniProt Q9Y5N1); assay: Human H3 radioligand binding ([3H]-N-alpha-methylhistamine, SPA)
T1 construct: expressed in transfected cells
Procedure: (§1) Methods: CHO cells stably expressing the human H3 receptor (GenBank: NM_007232) were harvested and cell pellets were frozen (−80° C.). Cell pellets were resuspended in 5 mM Tris-HCl, pH 7.5 with […] and a cocktail of protease inhibitors (Complete Protease Inhibitior Tablets, Roche Diagnostics). Cells were disrupted using a polytron cell homogenizer and the suspension was centrifuged at 1000×g for 10 minutes at 4° C. The pellet was discarded and the supernatant centrifuged at 40,000×g for 30 min at 4° C. This membrane pellet was washed in membrane buffer containing 50 mM Tris-HCl, pH 7.5 with 0.6 mM EDTA, 5 mM MgCl2 and protease inhibitors, recentrifuged as above and the final pellet resuspended in membrane buffer plus 250 mM sucrose and frozen at −80° C.
(§2) Radioligand Binding. Membranes were resuspended in 50 mM Tris HCl (pH 7.4), 5 mM MgCl2, 0.1% BSA. The membrane suspensions (10 μg protein per well) were incubated in a 96 well microtiter plate with [^3H]-N-alpha-methylhistamine (approximately 1 nM final concentration), test compounds at various concentrations (0.01 nM-30 μM) and scintillation proximity beads (Perkin Elmer, FlashBlueGPCR Scintillating Beads) in a final volume of 80 μl for 4 hours at room temperature, protected from light. Non-specific binding was determined in the presence of 10 μM clobenpropit. Radioligand bound to receptor, and therefore in proximity to the scintillation beads, was measured using a MicroBeta scintillation counter.

[1] = target: T2, rat histamine H3 receptor (Rattus norvegicus, UniProt Q9QYN8); assay: Rat H3 radioligand binding ([3H]-N-alpha-methylhistamine, SPA)
T2 construct: encoding the entire 445-amino-acid rat histamine H3 receptor; expressed in transfected cells; membrane preparation
T2 sequence (Q9QYN8 whole entry): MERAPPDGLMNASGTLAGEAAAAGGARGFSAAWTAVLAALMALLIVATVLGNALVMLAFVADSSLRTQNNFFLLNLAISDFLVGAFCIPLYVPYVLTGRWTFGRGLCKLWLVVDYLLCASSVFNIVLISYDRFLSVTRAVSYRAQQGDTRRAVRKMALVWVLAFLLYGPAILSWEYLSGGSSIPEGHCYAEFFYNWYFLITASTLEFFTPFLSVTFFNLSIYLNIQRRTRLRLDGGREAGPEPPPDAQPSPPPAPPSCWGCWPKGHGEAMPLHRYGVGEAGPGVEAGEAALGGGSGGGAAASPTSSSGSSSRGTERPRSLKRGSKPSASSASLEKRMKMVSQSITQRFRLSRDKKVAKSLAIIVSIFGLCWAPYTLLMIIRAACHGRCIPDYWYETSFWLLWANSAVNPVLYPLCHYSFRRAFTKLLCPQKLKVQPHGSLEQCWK
Source text: as §1, with “Cell line development and membrane preparation. The rat” for “Methods: CHO cells stably expressing the human”, “cDNA was PCR amplified from reverse-transcribed RNA pooled from rat thalamus, hypothalamus, striatum and prefrontal cortex with a sequence corresponding to by #338-1672 of Genbank file #NM_053506, encoding the entire 445-amino-acid rat histamine H3 receptor. This was engineered into the pIRES-neo3 mammalian expression vector, which was stably transfected into the CHO-A3 cell line (Euroscreen, Belgium), followed by clonal selection by limiting dilution. Cells” for “(GenBank: NM_007232)”
as §2

[2] = Table C, human H3 binding, read-out: Human H3 Ki
[3] = Table C, rat H3 binding, read-out: Rat H3 Ki
[4] = Table A, human H3 binding, read-out: Human Ki
[5] = Table A, rat H3 binding, read-out: Rat Ki
[6] = Human H3 binding, Table B, Examples 136-362, read-out: hum H3 binding Ki
[7] = Rat H3 binding, Table B, Examples 136-362, read-out: rat H3 binding Ki
[8] = human H3 binding, Table D, read-out: Human H3 Ki
[9] = rat H3 binding, Table D, read-out: Rat H3 Ki

T1 sequence (Q9Y5N1 whole entry): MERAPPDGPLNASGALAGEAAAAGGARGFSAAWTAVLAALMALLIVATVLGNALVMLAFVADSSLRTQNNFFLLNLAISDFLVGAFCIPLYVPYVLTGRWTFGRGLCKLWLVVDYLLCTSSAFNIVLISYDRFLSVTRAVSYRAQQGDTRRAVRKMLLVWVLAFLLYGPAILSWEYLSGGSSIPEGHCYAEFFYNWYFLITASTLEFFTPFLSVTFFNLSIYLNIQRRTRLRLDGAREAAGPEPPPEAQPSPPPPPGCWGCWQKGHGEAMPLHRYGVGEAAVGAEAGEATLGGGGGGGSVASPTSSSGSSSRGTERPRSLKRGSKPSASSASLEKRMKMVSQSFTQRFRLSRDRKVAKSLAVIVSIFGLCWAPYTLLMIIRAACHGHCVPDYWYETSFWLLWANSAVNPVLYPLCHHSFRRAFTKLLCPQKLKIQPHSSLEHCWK

Row | SMILES | Ki (human H3 receptor; [4]) [nM] | Ki [1, 5] [nM] | also measured
1 | Cc1nc(C)c(-c2ccc3c(c2)COC2(CCN(C4CCC4)CC2)O3)s1 (as salt: HCl) [Example 70] |  |  | melting point: 225 to 227 °C
2 | c1ccc(Oc2ccc3c(c2)COC2(CCN(C4CCC4)CC2)O3)cc1 (as salt: HCl) [Example 131] |  |  | melting point: 240 to 245 °C
3 | CC(C)CN1CC(c2ccc3c(c2)COC2(CCN(C4CCC4)CC2)O3)CCC1=O (stereo not shown) (as salt: HCl) [Example 564] |  |  | melting point: 98 to 103 °C
4 | c1cc2c(cc1OC1CCNCC1)CCC1(CCN(C3CCC3)CC1)O2 [Example 425] |  |  | Ki (human H3 receptor; [2]): < 200 nM; Ki [1, 3]: < 200 nM
5 | O=C(c1ccc(-c2ccc3c(c2)CCC2(CCN(C4CCC4)CC2)O3)cc1)N1CCOCC1 [Example 99] | < 200 | < 200 | 
6 | c1ccc(-c2ccc3c(c2)CCC2(CCN(C4CCC4)CC2)O3)cc1 [Example 102] | < 200 | < 200 | 
7 | O=C(c1ccc(-c2ccc3c(c2)OC2(CCN(C4CCC4)CC2)O3)cc1)N1CCOCC1 [Example 89] | < 200 | < 200 | 
8 | c1cc2c(cc1OCC1CCCO1)CCC1(CCN(C3CCC3)CC1)O2 (stereo not shown) [Example 449] |  |  | Ki (human H3 receptor; read-out: Human H3 Ki): < 200 nM; Ki ([1]; read-out: Rat H3 kI): < 200 nM
9 | O=C(O)c1c(F)cc(-c2ccc3c(c2)CCC2(CCN(C4CCC4)CC2)O3)cc1F [Example 318] |  |  | Ki (human H3 receptor; [6]): < 200 nM; Ki [1, 7]: < 200 nM
10 | O=C(c1cccc(-c2ccc3c(c2)OC2(CCN(C4CCC4)CC2)O3)c1)N1CCOCC1 [Example 91] | < 200 | < 200 | 
11 | O=c1ccc(-c2ccc3c(c2)COC2(CCN(C4CC(CO)C4)CC2)O3)c[nH]1 (stereo not shown) [Example 721] |  |  | Ki (human H3 receptor; [8]): > 1000 nM; melting point: 228 to 230 °C
12 | O=C(O)CCc1ccc2c(c1)COC1(CCN(C3CCC3)CC1)O2 [Example 637] |  |  | Ki (human H3 receptor; [8]): 200 to 1000 nM; melting point: 235 to 237 °C
13 | Cc1cc(-c2ccc3c(c2)COC2(CCN(C4CCC4)CC2)O3)cnc1OCc1ccccc1 [Example 549] |  |  | Ki (human H3 receptor; read-out: Human H3 Ki): 200 to 1000 nM; Ki ([1]; read-out: Rat H3 kI): > 1000 nM
14 | c1cnc(-c2ccc3c(c2)CCC2(CCN(C4CCC4)CC2)O3)cn1 [Example 145] |  |  | Ki (human H3 receptor; [6]): < 200 nM; Ki [1, 7]: < 200 nM
15 | c1cc2c(cc1OC1CCNCC1)CCC1(CCN(C3CCC3)CC1)O2 (as salt: HCl) [Example 425] |  |  | melting point: > 320 °C
16 | NC(=O)c1ccc(N2CCN(c3ccc4c(c3)CCC3(CCN(C5CCC5)CC3)O4)CC2)nc1 [Example 379] |  |  | Ki (human H3 receptor; [2]): < 200 nM; Ki [1, 3]: < 200 nM
17 | CC(C)(C)OC(=O)n1cccc1-c1ccc2c(c1)COC1(CCN(C3CCC3)CC1)O2 [Example 706] |  |  | Ki (human H3 receptor; [8]): < 200 nM; Ki [1, 9]: < 200 nM
18 | Fc1ncccc1-c1ccc2c(c1)CCC1(CCN(C3CCC3)CC1)O2 [Example 118] | < 200 | < 200 | 
19 | CNC(=O)c1ccc(-c2ccc3c(c2)CCC2(CCN(C4CCC4)CC2)O3)cc1 [Example 106] | < 200 | < 200 | 
20 | c1cc2c(cc1OC[C@H]1CCCO1)CCC1(CCN(C3CCC3)CC1)O2 [Example 464] |  |  | Ki (human H3 receptor; read-out: Human H3 Ki): < 200 nM; Ki ([1]; read-out: Rat H3 kI): < 200 nM
21 | O=C(c1cccc(-c2ccc3c(c2)OC2(CCN(C4CCC4)CC2)OC3)c1)N1CCCC1 [Example 94] | 200 to 1000 | 200 to 1000 | 

Row | SMILES | Ki (human H3 receptor; [4]) [nM] | Ki [1, 5] [nM] | also measured
22 | c1cc2c(cc1N1CCOCC1)COC1(CCN(C3CCC3)CC1)O2 [Example 214] |  |  | Ki (human H3 receptor; [6]): < 200 nM; Ki [1, 7]: < 200 nM
23 | COC(c1ccncc1)c1ccc2c(c1)COC1(CCN(C3CCC3)CC1)O2 (stereo not shown) [Example 724] |  |  | Ki (human H3 receptor; [8]): < 200 nM; Ki [1, 9]: < 200 nM
24 | c1ccc(Oc2ccc3c(c2)COC2(CCN(C4CCC4)CC2)O3)cc1 [Example 131] | 200 to 1000 | < 200 | 
25 | CCS(=O)(=O)c1cc(-c2ccc3c(c2)COC2(CCN(C4CCC4)CC2)O3)c[nH]c1=O [Example 807] |  |  | Ki (human H3 receptor; [8]): < 200 nM; Ki [1, 9]: < 200 nM
26 | NC(=O)c1c(F)cc(-c2ccc3c(c2)CCC2(CCN(C4CCC4)CC2)O3)cc1F [Example 340] |  |  | Ki (human H3 receptor; [6]): < 200 nM; Ki [1, 7]: < 200 nM
27 | NS(=O)(=O)c1ccc(-c2ccc3c(c2)CCC2(CCN(C4CCC4)CC2)O3)cc1 [Example 116] | < 200 | < 200 | 
28 | c1cc2c(cc1-c1ccc3nonc3c1)CCC1(CCN(C3CCC3)CC1)O2 [Example 112] | < 200 | < 200 | 
29 | CNC(=O)c1ccc(-c2ccc3c(c2)CCC2(CCN(C4CCC4)CC2)O3)cc1F [Example 115] | < 200 | < 200 | 
30 | CC(C)Cn1cc(-c2ccc3c(c2)COC2(CCN(C4CCC4)CC2)O3)ccc1=O [Example 562] |  |  | Ki (human H3 receptor; read-out: Human H3 Ki): < 200 nM; Ki ([1]; read-out: Rat H3 kI): < 200 nM
31 | O=C(O)c1c(F)cc(-c2ccc3c(c2)COC2(CCN(C4CCC4)CC2)O3)cc1F [Example 334] |  |  | Ki (human H3 receptor; [6]): 200 to 1000 nM; Ki ([1]; Rat H3 binding, Table B, given as numeric bound instead of class symbol, read-out: rat H3 binding Ki): > 300 nM
32 | O=C(Nc1ccc2c(c1)COC1(CCN(C3CCC3)CC1)O2)Nc1ccccc1Cl [Example 185] |  |  | Ki (human H3 receptor; [6]): < 200 nM; Ki [1, 7]: < 200 nM
33 | CN(C)C(=O)c1ccc(N2CCN(c3ccc4c(c3)CCC3(CCN(C5CCC5)CC3)O4)CC2)nc1 [Example 410] |  |  | Ki (human H3 receptor; [2]): < 200 nM; Ki [1, 3]: < 200 nM
34 | COC1(c2ccc3c(c2)COC2(CCN(C4CCC4)CC2)O3)CCC(C(F)(F)F)CC1 (stereo not shown) [Example 568] |  |  | Ki (human H3 receptor; read-out: Human H3 Ki): < 200 nM; Ki ([1]; read-out: Rat H3 kI): < 200 nM
35 | c1cnc(COc2ccc3c(c2)CCC2(CCN(C4CCC4)CC2)O3)nc1 [Example 317] |  |  | Ki (human H3 receptor; [6]): < 200 nM; Ki [1, 7]: < 200 nM
36 | N#Cc1cccc(-c2ccc3c(c2)OC2(CCN(C4CCC4)CC2)O3)c1 [Example 92] | 200 to 1000 | > 1000 | 
37 | c1nc(Cc2ccc3c(c2)COC2(CCN(C4CCC4)CC2)O3)cs1 [Example 701] |  |  | Ki (human H3 receptor; [8]): < 200 nM; Ki [1, 9]: < 200 nM
38 | CC(C)Cn1cc(-c2ccc3c(c2)COC2(CCN(C4CCC4)CC2)O3)ccc1=O (as salt: HCl) [Example 562] |  |  | melting point: 182 to 190 °C
39 | O=C(c1cccc(-c2ccc3c(c2)COC2(CCN(C4CCC4)CC2)O3)c1)N1CCCCC1 [Example 53] | < 200 | < 200 | 
40 | COc1ccc(CCc2ccc3c(c2)COC2(CCN(C4CCC4)CC2)O3)cn1 [Example 522] |  |  | Ki (human H3 receptor; read-out: Human H3 Ki): < 200 nM; Ki ([1]; read-out: Rat H3 kI): < 200 nM
41 | c1cn2c(n1)CN(c1ccc3c(c1)CCC1(CCN(C4CCC4)CC1)O3)CC2 [Example 428] |  |  | Ki (human H3 receptor; [2]): < 200 nM; Ki [1, 3]: < 200 nM

More lines, main results first:

Row | Ki (human H3 receptor; [4]) [nM] | Ki [1, 5] [nM] | SMILES | also measured
42 | < 200 | < 200 | NC(=O)Cc1ccc(-c2ccc3c(c2)COC2(CCN(C4CCC4)CC2)O3)cc1 [Example 49] | 
43 | < 200 | < 200 | Fc1ccc(-c2ccc3c(c2)COC2(CCN(C4CCC4)CC2)O3)cn1 [Example 1] | 
44 | < 200 | < 200 | CS(=O)(=O)c1ccc(-c2ccc3c(c2)COC2(CCN(C4CCC4)CC2)O3)cc1 [Example 21] | 
45 | < 200 | < 200 | N#Cc1ccc(-c2ccc3c(c2)COC2(CCN(C4CCC4)CC2)O3)cc1 [Example 3] | 
46 | < 200 | < 200 | c1cncc(-c2ccc3c(c2)COC2(CCN(C4CCC4)CC2)O3)c1 [Example 7] | 
47 | < 200 | < 200 | c1cc(-c2ccc3c(c2)COC2(CCN(C4CCC4)CC2)O3)cs1 [Example 13] | 
48 | < 200 | < 200 | CN(C)S(=O)(=O)c1ccc(-c2ccc3c(c2)COC2(CCN(C4CCC4)CC2)O3)cc1 [Example 32] | 
49 | < 200 | < 200 | O=C(NC1CC1)c1ccc(-c2ccc3c(c2)COC2(CCN(C4CCC4)CC2)O3)cc1 [Example 14] | 
50 | < 200 | < 200 | CCOc1ccc(-c2ccc3c(c2)COC2(CCN(C4CCC4)CC2)O3)cn1 [Example 11] | 
51 | < 200 | < 200 | c1cc2c(cc1-c1ccc3c(c1)COC1(CCN(C4CCC4)CC1)O3)CCO2 [Example 2] | 
52 | < 200 | < 200 | O=C(c1ccc(-c2ccc3c(c2)COC2(CCN(C4CCC4)CC2)O3)cc1)N1CCCC1 [Example 8] | 
53 | < 200 | < 200 | NC(=O)c1ccc(-c2ccc3c(c2)CCC2(CCN(C4CCC4)CC2)O3)cc1 [Example 113] | 
54 | < 200 | < 200 | O=C(c1cccc(-c2ccc3c(c2)COC2(CCN(C4CCC4)CC2)O3)c1)N1CCOCC1 [Example 56] | 
